According to patent US20090221610A1, “Compositions and Methods for Treating Cognitive Disorders” (Yale University, priority 2006, published 2009):
Entries after “also recorded” stand apart in the source; their conditions may differ.

Experiments:
PFC neurons = test: Single neuron recording and iontophoresis in monkeys performing a spatial WM (ODR) task; type: in vivo, rhesus monkeys; details: for Decreased: percent of neurons, spatial delay-related firing / Un-changed: number of neurons, spatial delay-related firing / Un-changed: percent of neurons, spatial delay-related firing / Decreased: number of neurons, spatial delay-related firing / Increased: percent of neurons, spatial delay-related firing / Increased: number of neurons, spatial delay-related firing of PFC neurons / Increased: number of neurons, spatial delay-related firing: iontophoresis; for Increased: number of neurons, spatial delay-related firing of PFC neurons: low dose 5-15 nA (text: ZD7288 10 nA); for Increased: number of neurons, spatial delay-related firing: no dose in table (text: Sp-cAMPS 10 nA, Rp-cAMPS 40-50 nA); for Reversal of the enhancing effects of guanfacine on delay-related activity: co-iontophoresis with guanfacine (yohimbine 15 nA; Sp-cAMPS 10 nA); for Reversal: number of neurons / Reversal: percent of neurons / No Reversal: number of neurons / No Reversal: percent of neurons: co-iontophoresis
Experimental: Studies were performed on 4 adult male rhesus monkeys trained on the spatial ODR task (FIG. 3). Iontophoretic electrodes, neuronal recording and drug delivery were as described in (Wang et al., 2004) and also are provided in the Supplemental Material. Guanfacine, yohimbine, ZD7288(Tocris, Ellisville, Mo.) and etazolate (Sigma, St. Louis, Mo.) were dissolved at 0.01M in triple-distilled water (adjusted with HCl to pH 3.5-4.0). Sp-cAMP and Rp-cAMP (Sigma) were dissolved at 0.01M in triple-distilled water (adjusted with NaOH to pH 9). Two-way ANOVA was used to examine the spatial tuned task-related activity with regard to: (1) different periods of the task (cue, delay, response vs. fixation) and (2) different cue locations. One-way ANOVAs were employed to assess the effect of the drug application on cells displaying delay-related activity. Monkeys performed an oculomotor spatial delayed response (ODR) task, illustrated in FIG. 3A. The ODR task requires the monkey to make a memory-guided […] to a visuo-spatial target. Stimulus position was randomized over trials to ensure use of WM. Neurons were recorded from area 46 of the dorsolateral PFC (FIG. 3B) as the monkey performed the task. […] In the present study, 128 neurons with delay-related mnemonic activity were isolated and subjected to iontophoretic application of pharmacological agents See Table 1, below summarizing the effects of drugs (Table 1) and their reversal (Table 2) on PFC neuronal response.

rat prefrontal cortex [1] = test: Spatial delayed alternation task in a T maze after intra-PFC infusion; type: in vivo
rat prefrontal cortex [2] = test: as above; type: in vivo; remark: listed apart in the source
Experimental: Rats (n=5) were tested on the spatial delayed alternation task in a T maze, a classical test of prefrontal cortical function in rodents (Larsen and Divac, Physiolog Psychol, 6:15-17, 1978). Rats were trained on the task, and then implanted with cannula aimed at the prelimbic prefrontal cortex as described in (Ramos, et al., Neuron, 40:835-845, 2003). Following recovery from surgery, rats were infused with saline (0.5 μl), the Ih channel blocker ZD7288 (0.0001 μg/0.5 μl), the cAMP analog […]), or a combination of ZD7288 (0.0001 μ[…] (0.21 nmol). There was at least one week washout between drug treatments, and a within subjects comparison was performed (2 way analysis of variance with repeated measures with user defined contrasts). […] Male Sprague Dawley rats (240-260 g; Taconic, Germantown, N.Y.) were trained on the delayed alternation task as described in Ramos et al., 2003. Guide cannula were implanted dorsal in prelimbic PFC (AP: +3.2 mm; ML: ±0.75 mm; DV: -4.2 mm). For infusions, needles reached to 4.5 mm DV; infused at 0.25 μL/min for 2 min. Drug or vehicle was administered in a counterbalanced order with at least 1 week between infusions. […] The experimenter was blind to treatment.

ferret PFC slices = test: In vitro extracellular multiple unit and intracellular recording from PFC slices; type: cell-based; details: bath application 20-50 micromolar
Experimental: Methods for extracellular multiple unit and intracellular recording in ferret PFC slices have been detailed elsewhere (Shu et al., 2003). Slices (0.4 mm) from 2-4 month old ferret PFC were maintained in either an interface or submerged chamber (35-36° C.) in a slice solution containing (in mM): NaCl, 126; KCl, 3.1; MgSO4, 1; NaHPO4, 1.25; CaCl2, 1; NaHCO3, 26; dextrose, 10, and aerated with 95% O2, 5% CO2 to a final pH of 7.4. Simultaneous extracellular multiple unit and intracellular recordings were performed in layer 5 with the electrodes approximately […] of one another. Intracellular micropipettes contained 2 M potassium acetate, while whole cell recording pipettes contained KGluconate 140, KCl 3, MgCl2 2, Na2ATP 2, HEPES 10, and EGTA 0.2. The cellular and network consequences of modulation of HCN channels was examined with intracellular and whole cell recordings from layer 5 pyramidal cells simultaneously with extracellular multiple unit recordings in the ferret PFC in vitro (n=55, see FIG. 6G). Under normal conditions, these slices generate Up and Down states, consisting of repeating periods of recurrent network activity (Shu et al., 2003).

[3] = no dose in table (yohimbine 15 nA, Sp-cAMPS 10 nA, etazolate 25 nA)
[4] = iontophoresis 10 nA, example neuron

Structure (SMILES)	Decreased: percent of neurons, spatial delay-related firing (PFC neurons; no dose in table)	Un-changed: number of neurons, spatial delay-related firing (PFC neurons; no dose in table)	Un-changed: percent of neurons, spatial delay-related firing (PFC neurons; no dose in table)	Decreased: number of neurons, spatial delay-related firing (PFC neurons; [3])	Effect on delay-related firing for the preferred direction (PFC neurons; [4])	Increased: percent of neurons, spatial delay-related firing (PFC neurons; 5-15 nA)	Un-changed: number of neurons, spatial delay-related firing (PFC neurons; 5-15 nA)	Un-changed: percent of neurons, spatial delay-related firing (PFC neurons; 5-15 nA)	Decreased: percent of neurons, spatial delay-related firing (PFC neurons; 20-50 nA)	Decreased: number of neurons, spatial delay-related firing (PFC neurons; high dose 20-50 nA)	Increased: number of neurons, spatial delay-related firing of PFC neurons (PFC neurons)	Increased: percent of neurons, spatial delay-related firing (PFC neurons; no dose in table)	Increased: number of neurons, spatial delay-related firing (PFC neurons)	Reversal of the enhancing effects of guanfacine on delay-related activity (PFC neurons)	Reversal: number of neurons (PFC neurons; reversal of guanfacine)	Reversal: percent of neurons (PFC neurons; reversal of guanfacine)	other results
CCOC(=O)c1cnc2c(cnn2CC)c1NN=C(C)C [Etazolate]	(83%)	2	17%	10	–	–	–	–	–	–	–	–	–	–	–	–	–
NC(N)=NC(=O)Cc1c(Cl)cccc1Cl [Guanfacine, N-(diaminomethylidene)-2-(2,6-dichlorophenyl)acetamide]	–	–	–	–	substantially increased; also recorded: significantly increased	(80%)	7	20%	(100%)	9	28	–	–	–	–	–	Effect on delay-related firing (PFC neurons; iontophoresis 50 nA, higher dose): did not have enhancing effects; Spatial working memory performance (percent correct, delayed alternation) (rat prefrontal cortex [1]; aged rats (n=9), prefrontal infusion 0.0001 μg): significantly different than saline
Nc1ncnc2c1ncn2[C@@H]1O[C@@H]2COP(O)(=S)O[C@H]2[C@H]1O (stereo partly drawn) [Rp-cAMP]	–	4	33%	–	–	–	–	–	–	–	–	(67%)	8	–	–	–	Effect on delay-related firing for the preferred direction (PFC neurons; iontophoresis 40-50 nA): specifically increased; Increased: number of neurons, spatial delay-related firing (PFC neurons; listed as Rp-cAMPS): 8
Nc1ncnc2c1ncn2[C@@H]1O[C@@H]2COP(O)(=S)O[C@H]2[C@H]1O (stereo partly drawn) [Sp-cAMP]	(48%)	5	19%	13	significantly decreased	–	–	–	–	–	–	(33%)	9	significantly reversed	6	(67%)	Reversal: number of neurons (PFC neurons; reversal of Rp-cAMP): 6; Reversal: percent of neurons (PFC neurons; reversal of Rp-cAMP): (100%); No Reversal: number of neurons (PFC neurons; reversal of guanfacine): 3; No Reversal: percent of neurons (PFC neurons; reversal of guanfacine): 33%; Increased: number of neurons, spatial delay-related firing (PFC neurons; listed as Sp-cAMPS): 9; Un-changed: number of neurons, spatial delay-related firing (PFC neurons; no dose in table, listed as Sp-cAMPS): 5; Reversal of the enhancing effect of Rp-cAMPS on delay-related firing (PFC neurons; subsequent co-iontophoresis with Rp-cAMPS): reversed; Effect of co-infusion on the ZD7288 improvement of working memory (rat prefrontal cortex [2]; co-infusion 0.21 nmol with ZD7288 0.0001 μg, listed as Sp-cAMPS): significantly reversed; also recorded: blocked; also recorded: significantly reduced; Spatial working memory performance compared to saline (rat prefrontal cortex [2]; intra-PFC infusion 0.21 nmol/0.5 μl alone): no effect on its own; Effect of co-infusion on the guanfacine effects on working memory (rat prefrontal cortex [1]; aged rats, co-infusion with guanfacine): reversed
COC(=O)[C@@H]1[C@H]2C[C@H]3c4[nH]c5ccccc5c4CCN3C[C@@H]2CC[C@@H]1O [Yohimbine]	(100%)	–	–	15	–	–	–	–	–	–	–	–	–	reversed	6	(100%)	Effect on delay-related activity for the preferred direction (PFC neurons; iontophoresis 15 nA): dramatically suppressed
CCN(c1ccccc1)c1cc(NC)[n+](C)c(C)n1.[Cl-] [ZD7288]	–	–	–	–	further enhanced	(70%)	8	30%	(100%)	10	19	–	–	–	–	–	Reversal of the reduction in delay-related firing induced by etazolate (PFC neurons; co-iontophoresis with etazolate): fully reversed; Reversal of the yohimbine suppression of delay-related activity (PFC neurons; co-iontophoresis with yohimbine (15 nA)): significantly reversed; No Reversal: number of neurons (PFC neurons; reversal of etazolate): 2; No Reversal: percent of neurons (PFC neurons; reversal of etazolate): 25%; Reversal: number of neurons (PFC neurons; reversal of etazolate): 6; Reversal: percent of neurons (PFC neurons; reversal of etazolate): (75%); No Reversal: number of neurons (PFC neurons; reversal of yohimbine): 2; No Reversal: percent of neurons (PFC neurons; reversal of yohimbine): 31%; Reversal: number of neurons (PFC neurons; reversal of yohimbine): 7; Reversal: percent of neurons (PFC neurons; reversal of yohimbine): (71%); Reversal: number of neurons (PFC neurons; reversal of yohimbine, listed as ZD 7288): 5; Effect on delay-related firing for the preferred direction (PFC neurons; iontophoresis 5 nA, example neuron): significantly increased; Effect on delay-related firing (PFC neurons; iontophoresis 40 nA, highest concentration): decreased rather than increased firing; Number of action potentials generated by a depolarizing current pulse (ferret PFC slices): increase; Up-state action potential discharge (ferret PFC slices; from 1.8±1.7 Hz, n=9): 9.2±4.9 Hz; Apparent input resistance (ferret PFC slices; from 18.6±7.5, n=10): 36±10.8 Mohms; Duration of the recurrent network activity of the Up state (ferret PFC slices; from an average of 0.84 (±0.25) before): 4.1 (±1.3) sec; Increase in duration of the recurrent network activity of the Up state (ferret PFC slices; n=10): ~500%; Membrane potential of layer 5 pyramidal neurons (ferret PFC slices; n=12): progressive hyperpolarization; Spatial working memory performance (percent correct, delayed alternation) compared to saline (rat prefrontal cortex [2]; intra-PFC infusion 0.0001 μg/0.5 μl, n=5): significantly improved
